# Measured values as given in patent US20100216661A1, “Diagnostic Assay” (priority 2007, published 2010).
# Test system: polyclonal anti-RhD preparation (Human Anti-D Ig)
# Assay: Biopanning of phage-peptide libraries with polyclonal anti-RhD
# Type: binding
# Conditions: biopanning of phage-peptide libraries with polyclonal anti-RhD preparation
# Source text: (§1) Three different phage libraries from New England Biolabs. (Ph.D. 7 and Ph.D. 12 displaying linear 7- and 12-mer peptides, respectively and Ph.D. C7C displaying 7-mer peptides constrained by a disulphide bridge at their termini) and a linear 15mer library (kindly provided by Prof. George P. Smith, University of Missouri) were used in biopanning experiments with 10 different monoclonal antibodies and a polyclonal preparation (Table 1).
# (§2) For each target antibody/library combination, a separate well of a 96-well Immulon 4 flat-bottomed ELISA plate (Thermo Labsystems) was coated with 5 μg of antibody in 150 μl ELISA coating buffer (15 mM Na2CO3, 35 mM NaHCO3, pH9.6). Plates were sealed and incubated at 4° C. overnight. Unbound antibody was discarded and 350 μl of blocking buffer (0.1M NaHCO3/3% skimmed milk powder) was added to each well. Plates were sealed and incubated for 1 hour at 4° C. The blocking buffer was removed and the wells were washed six times with 300 μl TBS/0.1% Tween 20. Approximately 2×10^11 plaque forming units (pfu) in 100 μl TBS/0.1% Tween 20 were added to each well and the plates were incubated at room temperature for 1 hour. Wells were washed ten times with 300 μl TBS/0.1% Tween 20. Bound phage were eluted by incubation with 100 μl of 0.2M glycine-HCl/BSA, pH2.2 (1 mg/ml) for 10 minutes, then neutralised with 15 μl of 1M Tris-HCL (pH9.1). An aliquot of the Round 1 eluate was removed and titred. The remainder of the eluted phage were amplified by infection of E. coli ER2538 cells for 4.5 hours at 37° C. The cultures were centrifuged for 10 minutes at 10,000 rpm at 4° C. The supernatants were recovered, ⅙ volume PEG/NaCl (20% polyethylene glycol 8000; 2.5M NaCl) added, then incubated overnight at 4° C. The PEG-precipitated phage were centrifuged at 10,000 rpm for 15 minutes at 4° C. The supernatant was removed and the phage pellet resuspended in 200 μl TBS. Two further rounds of panning were undertaken and approximately 2×10^11 pfu of the Round 2 or Round 3 amplified eluates were used as input phage. Round 3 eluates were titrated but not amplified. Individual plaques were amplified and subjected to PCR amplification, prior to DNA sequence analysis. The specificity of peptide-antibody binding was subsequently determined using both phage ELISA and SPOTs techniques.
row,Substance,Panning Antibody (antibody that selected the phage-peptide in biopanning)
1,RhD 95 (IHWWVKSPPPGS),RhD
2,RhD 86 (FHSNWPSAYTAR),RhD
3,RhD 105 (APPYPGPLPLSL),RhD
4,RhD 103 (SVSVGMKPSPRP),RhD
5,RhD 101 (FHRHYYPWALIQ),RhD
6,RhD 84 (FHENWSTRPTTR),RhD
7,RhD 104 (WPHQVHKHIYRQ),RhD
8,RhD 100 (ATWSHHLSSAGL),RhD
9,RhD 96 (SHWWTSILATPS),RhD
10,RhD 97 (FHWHLQPQLWSY),RhD
11,RhD 88 (AGYQIGMPNPLL),RhD
12,RhD 85 (FHSVYPWREAEG),RhD
13,RhD 99 (GQKTHNPFHLHP),RhD
14,RhD 91 (ALPELSSLPESAR),RhD
15,RhD 89 (FHWRYPLPLPGQ),RhD
16,RhD 82 (FHANWPQSARDV),RhD
17,RhD 102 (HSLKHTQMSYSS),RhD
18,RhD 94 (FHWRLPYPLPSS),RhD
19,RhD 87 (FHSNWPSLIRAR),RhD
20,RhD 92 (LHWWPTYGNNGM),RhD
21,RhD 83 (FHSDWPGQTFTW),RhD
22,RhD 90 (SPTSFRQVFGFY),RhD
23,RhD 81 (FHSTWPWREAEG),RhD
24,RhD 98 (LHREWIYPYLIS),RhD
25,RhD 93 (FHRPYYWPPTPL),RhD

# Same assay, conditions: phage-peptide libraries; three rounds of panning
row,Substance,Selection by biopanning with polyclonal anti-RhD preparation
1,"RhD52: RhD peptide mimotope, Table 4 (HSSWYIQHFPPL)",selected

# Test system: anti-RhD monoclonal antibody T22 (LHM 169/80)
# Assay: Biopanning of phage-peptide libraries with anti-RhD T22
# Type: binding, Human
# Conditions: not given
# Source text: as §1, §2
row,Substance,Panning Antibody (antibody that selected the phage-peptide in biopanning)
1,RhD 40 (QLLCFPICRPEPPVS),RhD T22
2,RhD 29 (FHWPRSWVTWQS),RhD T22
3,RhD 36 (HHVFTPNCYPIC),RhD T22
4,RhD 32 (WPCHPICLSPRG),RhD T22
5,RhD 16 (WGLWFSN),RhD T22
6,RhD 22 (LLGLTET),RhD T22
7,RhD 27 (WHWYPRFSPPSH),RhD T22
8,RhD 35 (VYALGCWPICHK),RhD T22
9,RhD 25 (FHWSWYTPSRPS),RhD T22
10,RhD 26 (HSSWWLALAKPT),RhD T22
11,RhD 34 (WNCFPICHASGL),RhD T22
12,Rh0 37 (WHWSSLSWPALP),RhD T22
13,RhD 39 (AFLGHSHWFPSVASR),RhD T22
14,RhD 20 (WGLWWHT),RhD T22
15,RhD 38 (GNWLFNSCYPLCFPL),RhD T22

# Test system: anti-RhD monoclonal antibody T10 (LHM76/55)
# Assay: Biopanning of phage-peptide libraries with anti-RhD T10
# Type: binding, Human
# Conditions: biopanning of phage-peptide libraries with anti-RhD monoclonal T10
# Source text: as §1, §2
row,Substance,Panning Antibody (antibody that selected the phage-peptide in biopanning)
1,RhD 44 (HWKHPWGAWDTL),RhD T10
2,RhD 69 (VHWRWWDQRVPM),RhD T10
3,RhD 59 (WHWRLYSANTP),RhD T10
4,RhD 61 (SIWDLPLQYRGFGTS),RhD T10
5,RhD 54 (QHKTSITGHLEP),RhD T10
6,RhD 72 (WHPPQPS),RhD T10
7,RhD 58 (FHQRLWWPTHTP),RhD T10
8,RhD 42 (WYHKAPY),RhD T10
9,RhD 50 (WHWTFYTPLEST),RhD T10
10,Rh0 43 (YYQRAPY),RhD T10
11,RhD 66 (FHWRWSTFPEYP),RhD T10
12,RhD 57 (TLVYQPPWYRIA),RhD T10
13,RhD 56 (VPPWVSVRTGPG),RhD T10
14,RhD 49 (SMSQPKSQVNAH),RhD T10
15,RhD 75 (TQWYQIA),RhD T10
16,RhD 52 (HSSWYIQHFPPL),RhD T10
17,RhD 78 (LPWYATP),RhD T10
18,RhD 65 (RPHLLDWELNPV),RhD T10
19,RhD 71 (VPWFRAP),RhD T10
20,RhD 53 (STYLNGPTGVDL),RhD T10

row,Substance,Panning Antibody (antibody that selected the phage-peptide in biopanning)
1,RhD 55 (FHRWPTWPLPSP),RhD T10
2,RhD 47 (SMSSMLLAAQTV),RhD T10
3,RhD 68 (LDTYWYREHFRR),RhD T10
4,RhD 64 (FHRHWWPPTLST),RhD T10
5,RhD 80 (IPWYKIT),RhD T10
6,RhD 45 (WHWQWTPWSIQP),RhD T10
7,RhD 74 (FWWQVPA),RhD T10
8,RhD 62 (LWRLRGGSFPVISHG),RhD T10
9,RhD 63 (RNALHSLRTLSSSWV),RhD T10
10,RhD 41 (WYTKAPY),RhD T10
11,RhD 46 (WHKNWWPPSTPN),RhD T10
12,RhD 77 (TPLSKST),RhD T10
13,RhD 79 (LPWYRH),RhD T10
14,RhD 48 (QSHYRHISPAQV),RhD T10
15,RhD 73 (FHENWPS),RhD T10
16,RhD 51 (ESLSTDTYAILL),RhD T10
17,RhD 70 (LPWYQLT),RhD T10
18,RhD 67 (VWAVSLPWYRYP),RhD T10
19,RhD 60 (HAAFEPRGDVRHTLL),RhD T10
20,RhD 76 (LPWFQLP),RhD T10

# Same assay, conditions: phage-peptide libraries; three rounds of panning
row,Substance,Selection by biopanning with anti-RhD monoclonal antibody T10
1,"RhD52: RhD peptide mimotope, Table 4 (HSSWYIQHFPPL)",selected
